Laboratory results published in ChEMBL document CHEMBL1141008, “Identification of small molecule agonists of the motilin receptor” (Bioorg Med Chem Lett, 2008).

Assays:
Stomach [1] = assay: Increase in electric field stimulated contractile response in New Zealand White rabbit gastric antrum at 0.3 uM preincubated for 15 mins; type: functional, Oryctolagus cuniculus
[2] = Half life in New Zealand White rabbit gastric antrum at 0.3 uM; type: ADME, tissue-based, Oryctolagus cuniculus, Stomach
Motilin receptor [3] = biological target: T1, Motilin receptor (Homo sapiens, UniProt O43193); assay: Agonist activity at human recombinant motilin receptor expressed in HEK293 cells by calcium mobilization-based FLIPR assay; type: functional, cell-based
Motilin receptor [4] = biological target: T1, Motilin receptor; assay: Agonist activity at human recombinant motilin receptor expressed in CHO cells by calcium mobilization-based FLIPR assay; type: functional, cell-based
Motilin receptor [5] = biological target: T1, Motilin receptor; assay: Intrinsic activity at human recombinant motilin receptor expressed in CHO cells by calcium mobilization-based FLIPR assay relative to motilin; type: functional, cell-based
Stomach [6] = assay: Increase in electric field stimulated contractile response in New Zealand White rabbit gastric antrum at 3 uM pre-incubated for 15 mins; type: functional, Oryctolagus cuniculus
[7] = Half life in New Zealand White rabbit gastric antrum at 3 uM; type: ADME, tissue-based, Oryctolagus cuniculus, Stomach
[8] = Half life in New Zealand White rabbit gastric antrum at 10 uM; type: ADME, tissue-based, Oryctolagus cuniculus, Stomach
[9] = biological target: Growth hormone secretagogue receptor type 1 (Homo sapiens) (UniProt Q92847); assay: Activity at ghrelin receptor in human recombinant cells by calcium mobilization-based FLIPR assay
Stomach [10] = assay: Increase in electric field stimulated contractile response in New Zealand White rabbit gastric antrum at 10 uM pre-incubated for 15 mins; type: functional, Oryctolagus cuniculus
[11] = Selectivity for human recombinant motilin receptor over ghrelin receptor in FLIPR assay

T1 sequence (O43193 whole entry): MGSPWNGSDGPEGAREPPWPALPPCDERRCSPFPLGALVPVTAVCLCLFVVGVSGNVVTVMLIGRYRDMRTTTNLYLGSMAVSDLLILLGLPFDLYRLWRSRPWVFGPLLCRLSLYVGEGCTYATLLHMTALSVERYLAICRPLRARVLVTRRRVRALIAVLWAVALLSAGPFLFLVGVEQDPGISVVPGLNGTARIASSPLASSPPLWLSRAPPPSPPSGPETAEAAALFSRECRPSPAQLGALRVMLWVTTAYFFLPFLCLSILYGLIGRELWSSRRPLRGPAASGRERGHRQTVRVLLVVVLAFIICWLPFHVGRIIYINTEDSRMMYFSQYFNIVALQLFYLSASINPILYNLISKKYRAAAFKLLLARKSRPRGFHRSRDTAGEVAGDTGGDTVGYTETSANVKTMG
Chain of Growth hormone secretagogue receptor type 1 (Homo sapiens) (Q92847 whole entry, looked up): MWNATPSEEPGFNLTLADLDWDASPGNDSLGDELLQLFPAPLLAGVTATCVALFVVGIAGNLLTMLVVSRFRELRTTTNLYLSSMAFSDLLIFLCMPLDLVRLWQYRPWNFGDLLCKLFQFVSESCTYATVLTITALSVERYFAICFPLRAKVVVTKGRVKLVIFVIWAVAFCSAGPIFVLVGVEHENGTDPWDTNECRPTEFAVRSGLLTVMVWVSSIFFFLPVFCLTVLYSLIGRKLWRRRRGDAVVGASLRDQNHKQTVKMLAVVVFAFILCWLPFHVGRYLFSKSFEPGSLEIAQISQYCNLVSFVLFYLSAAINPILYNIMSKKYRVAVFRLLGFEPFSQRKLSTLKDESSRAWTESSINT

EC50 (Motilin receptor [3]) | EC50 (Motilin receptor [4]) | Activity (Motilin receptor [5]) | Structure (SMILES) | further results
 |  |  | CC[C@H](C)[C@H](NC(=O)[C@@H]1CCCN1C(=O)[C@@H](NC(=O)[C@@H](N)Cc1ccccc1)C(C)C)C(=O)N[C@@H](Cc1ccccc1)C(=O)N[C@H](C(=O)N[C@@H](Cc1ccc(O)cc1)C(=O)NCC(=O)N[C@@H](CCC(=O)O)C(=O)N[C@@H](CC(C)C)C(=O)N[C@@H](CCC(N)=O)C(=O)N[C@@H](CCCN=C(N)N)C(=O)N[C@@H](CCSC)C(=O)N[C@@H](CCC(N)=O)C(=O)N[C@@H](CCC(=O)O)C(=O)N[C@@H](CCCCN)C(=O)N[C@@H](CCC(=O)O)C(=O)N[C@@H](CCCN=C(N)N)C(=O)N[C@@H](CC(N)=O)C(=O)N[C@@H](CCCCN)C(=O)NCC(=O)N[C@@H](CCC(N)=O)C(=O)O)[C@@H](C)O [MOTILIN] | Activity (Stomach [1]): 506%; half-life at 0.3 µM [2]: 9 min
501 nM |  |  | COCCCN(Cc1ccccc1-c1ccc(CN2CCNCC2)cc1)C(=O)NC1CCCCC1 | 
 | > 3160 nM |  | COCCCN(Cc1ccccc1-c1ccc(C(=O)N2CCNCC2)cc1)C(=O)Cc1ccccc1 | 
 | 5010 nM | 0.9 | COc1cccc(CCN(Cc2ccccc2-c2ccc(N3CCNCC3)cc2)C(=O)NC2CCCCC2)c1 | 
 | 794 nM | 0.7 | COCCCN(Cc1ccccc1-c1ccc(CN2CCNCC2)cc1)C(=O)Cc1ccccc1 | 
 | > 12600 nM |  | COCCCN(Cc1ccccc1-c1ccc(CN2CCCCC2)cc1)C(=O)Cc1ccccc1 | 
1000 nM |  |  | COc1cccc(CCN(Cc2ccccc2-c2ccc(CN3CCNCC3)cc2)C(=O)Cc2ccccc2)c1 | 
 | > 12600 nM |  | COCCCN(Cc1ccccc1-c1ccc(CN2CCN(C(C)=O)CC2)cc1)C(=O)Cc1ccccc1 | 
1580 nM |  |  | O=C(NC1CCCCC1)N(CCc1ccccc1)Cc1ccccc1-c1cccc(CN2CCNCC2)c1 | 
 | > 12600 nM |  | COCCCN(Cc1ccccc1-c1ccc(CN2CCOCC2)cc1)C(=O)Cc1ccccc1 | 
 |  |  | CC[C@H]1OC(=O)[C@H](C)[C@@H](O[C@H]2C[C@@](C)(OC)[C@@H](O)[C@H](C)O2)[C@H](C)[C@@H](O[C@@H]2O[C@H](C)C[C@H](N(C)C)[C@H]2O)[C@](C)(O)C[C@@H](C)C(=O)[C@H](C)[C@@H](O)[C@]1(C)O [ERYTHROMYCIN] | Activity (Stomach [6]): 490%; half-life at 3 µM [7]: 23 min
 | > 12600 nM |  | COc1cccc(CCN(Cc2ccccc2-c2ccc(CCN3CCNCC3)cc2)C(=O)NC2CCCCC2)c1 | 
631 nM |  |  | COCCCN(Cc1ccccc1-c1ccc(CN2CCNCC2)cc1)S(=O)(=O)c1ccc(F)cc1 | 
631 nM |  |  | COCCCN(Cc1ccccc1-c1ccc(CN2CCNCC2)cc1)C(C)=O | 
100 nM | 50.1 nM | 0.9 | COc1cccc(CCN(Cc2ccccc2-c2ccc(CN3CCNCC3)cc2)C(=O)NC2CCCCC2)c1 | 
 |  | 1 | COc1cccc(CCN(Cc2ccccc2-c2ccc(CN3C[C@@H](C)N[C@@H](C)C3)cc2)C(=O)NC2CCCCC2)c1 | half-life at 10 µM [8]: 39 min; EC50 [9]: 126 nM; Activity (Stomach [10]): 182%; fold change (FC) [11]: 10
 | > 12600 nM |  | COCCCN(Cc1ccccc1-c1ccc(CN2CCN(C)CC2)cc1)C(=O)Cc1ccccc1 | 
5010 nM |  |  | COc1cccc(CCNCc2ccccc2-c2ccc(CN3CCNCC3)cc2)c1 | 
 | 3160 nM | 0.4 | COCCCN(Cc1ccccc1-c1ccc(CN(C)CCN(C)C)cc1)C(=O)Cc1ccccc1 | 
 | 398 nM | 0.6 | COc1cccc(CCN(Cc2ccccc2-c2ccc(CC3CCNCC3)cc2)C(=O)NC2CCCCC2)c1 | 
